These results are taken from paper PMC2222791, “Induction of the oxidative catabolism of retinoid acid in MCF-7 cells” (British Journal of Cancer, 1997).

pIC50: −log10 of the molar value. Values joined by “and” are separate entries in the source; they are usually repeats but may differ in a detail not shown here. Equal values may be shown once. Read-outs that look alike come from different tables or passages of the source. Starred links: 1 amine or outer side, 2 acyl side, 3 side chain; linkers in the order of their positions; H or OH if unused. Positions of bridges follow the written chain, without caps; N, C: chain ends. Non-standard residues stand in square brackets, D forms with d. Residues, ends and D or L forms follow the SMILES beside them. Chains are numbered I, II in the order given. Actinocin(9to1) = Cc1c2oc3c(C)ccc(C(=O)[*:1])c3nc-2c(C(=O)[*:2])c(N)c1=O; NMeV = CN[C@H](C(=O)O)C(C)C; Sar = CNCC(=O)O Bounds are passed on as bounds.

For one data set, the system named is RARs. Set-up: method as in Duell et al, 1992. As to conditions: ref Duell et al, 1992; cited from earlier work.
The next data set concerns BA-HAN-IC. The following applies: BA-HAN-IC cells; ref Ramp et al, 1994; cited from earlier work.
Data set [1] has as its system all-trans-RA catabolism in MCF-7 cells. As to the kind of experiment: Inhibition of induced all-trans-RA catabolism in MCF-7 cells. Type of data set: cell-based, human. As to conditions: for pIC50: MCF-7 cells preincubated 24 h with 10^-6 M all-trans-RA, 10^-7 M [3H]all-trans-RA as substrate, mean ± s.d., three experiments in duplicate; for Activity in inhibiting all-trans-RA catabolism, times less than all-trans-RA: relative to all-trans-RA, from IC50 values of Table 2; for Inhibition of induced all-trans-RA catabolism, in words: induced MCF-7 cells, 10^-7 M [3H]all-trans-RA, CH55 up to 10 μM.

Data set [2] concerns MCF-7 cells.
For the next data set, the system named is HL-60 leukaemia cells. Set-up: method as in Bollag and Holdener, 1992; Matsushima et al, 1992. The following applies: ref Bollag and Holdener, 1992, Matsushima et al; cited from earlier work.
Data set [3] deals with MCF-7 cells. The data set can be described thus: Viability of MCF-7 cells after preincubation (trypan blue). As to conditions: 24 h preincubation, varying concentrations, results not shown.
Data set [4] concerns RbTE cells and HL-60 leukaemia cells. Set-up: method as in Jetten et al, 1987. As to conditions: ref Jetten et al, 1987; cited from earlier work.
The test system of data set [5] is all-trans-RA catabolism in MCF-7 cells. The data set can be described thus: Induction of all-trans-RA catabolism in MCF-7 cells by preincubation with retinoids (microcolumn assay). The following applies: for RA catabolism (% of control): 24 h preincubation.
For data set [6] the test system is unchanged. As to the kind of experiment: Enzyme characteristics of induced all-trans-RA catabolism (Michaelis-Menten, Lineweaver-Burk). Type of data set: cell-based, human. As to conditions: MCF-7 cells preincubated 24 h with 10^-6 M all-trans-RA; substrate 5 x 10^-9 to 10^-6 M [3H]all-trans-RA; overall formation of polar metabolites; read-out: Estimated Km value of induced all-trans-RA catabolism. The procedure:
(§1) British Journal of Cancer (1997) 75(8), 1098-1104 ? […] Quantification was performed by optical densitometric scanning. […] Data are shown as mean ? s.d.

Another data set deals with CRABP-II mRNA. As to the kind of experiment: Northern blotting for CRABP mRNA in MCF-7 cells. It counts as cell-based, human. The procedure: as §1
Data set [7] relates to rat Dunning R3327G tumour homogenates. The following applies: cited from earlier work.
A further data set concerns rat liver homogenates. As to conditions: cited from earlier work.
A further data set relates to hamster liver microsomes. The following applies: read-out: Km value of all-trans-RA catabolism, cited from earlier work.
Data set [8] concerns F9 embryonal carcinoma cells. Set-up: method as in Willams and Napoli, 1985. As to conditions: ref Willams and Napoli, 1985; cited from earlier work.
The mark [9] stands for this setting: read-out: Km value of all-trans-RA catabolism.
[10] abbreviates: ref Krekels et al, 1995, read-out: IC50 value for inhibition of all-trans-RA catabolism.

For orientation: pIC50 means the IC50 on a negative log10 scale, so that one unit is a factor of ten. One may read the Km as the concentration of substrate that gives half-maximal velocity.

As to `CC1=C(/C=C/C(C)=C/C=C/C(C)=C/C(=O)O)C(C)(C)CCC1O` (centres unmarked) [4-hydroxy-RA], in the data set on RARs, the “Potency in stimulating gene transcription, times less potent than RA” value was 2-10 times.
As to `CC1=C(/C=C/C(C)=C/C=C/C(C)=C/C(=O)O)C(C)(C)CCC1O` (stereo not drawn) [4-hydroxy-all-trans-RA], the “Differentiation-inducing activity relative to all-trans-RA” value in the data set on BA-HAN-IC is “significantly weaker”.
In the case of `CC1=C(/C=C/C(C)=C/C=C/C(C)=C\C(=O)O)C(C)(C)CCC1=O` [4-keto-13-cis-RA, 4-keto-13-cis-retinoic acid], in [1], the pIC50 was 5.18 and the “Activity in inhibiting all-trans-RA catabolism, times less than all-trans-RA” value is “about 50 times”. Besides, the “Viability of the cells after preincubation” value (from here on “Viability of the cells”) with MCF-7 cells [2] is listed as “did not decrease viability”.
Turning to `CC1=C(/C=C/C(C)=C/C=C/C(C)=C/C(=O)O)C(C)(C)CCC1=O` [4-keto-RA], the “Potency in stimulating gene transcription, times less potent than RA” value in the data set with RARs is 2-10 times.
Turning to `CC1=C(/C=C/C(C)=C/C=C/C(C)=C/C(=O)O)C(C)(C)CCC1=O` [4-keto-all-trans-RA, 4-Keto-all-trans-retinoic acid], in data set [1], the pIC50 was 6.43 and the “Inhibition of induced all-trans-RA catabolism, in words” value (shortened to “Inhibition”) is on record as “activity similar to that of all-trans-RA”. In addition, the “Viability of the cells” value in the data set with MCF-7 cells [2] is “did not decrease viability”. Moreover, the “Differentiation-inducing activity relative to all-trans-RA” value in the data set on BA-HAN-IC was “significantly weaker”.
With `CC1=C(/C=C/C(C)=C\C=C\C(C)=C\C(=O)O)C(C)(C)CCC1` [9-cis-RA, 9-cis-retinoic acid], in data set [1] (Homo sapiens, MCF7), the pIC50 is 5.72. Moreover, in data set [1], the “Activity in inhibiting all-trans-RA catabolism, times less than all-trans-RA” value was “about 15 times”. For the same compound, the “Potency in inducing differentiation relative to all-trans-RA” value in the data set with HL-60 leukaemia cells is given as “equipotent to 10-fold as active”. In the data set with MCF-7 cells [3], the “Viability of the cells” value is on record as “did not decrease viability”.
In the case of `CC1=C(/C=C/C(C)=C/C=C/C(C)=C\C(=O)O)C(C)(C)CCC1` [13-cis-RA, 13-cis-retinoic acid], the “Activity in inhibiting all-trans-RA catabolism, times less than all-trans-RA” value in [1] worked out at 5 times. Moreover, in the data set on HL-60 leukaemia cells, the “Potency in inducing differentiation relative to all-trans-RA” value is listed as “equipotent”. Also, in the data set with MCF-7 cells [3], the “Viability of the cells” value is listed as “did not decrease viability”.
With `CC(C)(C)c1cc(C(=O)/C=C/c2ccc(C(=O)O)cc2)cc(C(C)(C)C)c1` [CH55, (E)-4-[3-(3,5-di-tert-butylphenyl)-3-oxo-l-propenyl]benzoic acid], in data set [1], the pIC50 was under 5.00 and the “Inhibition” value is reported as “did not inhibit”. Moreover, the “Biological activity, times higher than that of all-trans-RA” value in data set [4] is listed as 20-25 times. Besides, the “Viability of the cells” value in the data set with MCF-7 cells [3] is listed as “did not decrease viability”.
In the case of `Cc1c2oc3c(C)ccc(C(=O)N[C@@H]4C(=O)N[C@H](C(C)C)C(=O)N5CCC[C@H]5C(=O)N(C)CC(=O)N(C)[C@@H](C(C)C)C(=O)O[C@@H]4C)c3nc-2c(C(=O)N[C@@H]2C(=O)N[C@H](C(C)C)C(=O)N3CCC[C@H]3C(=O)N(C)CC(=O)N(C)[C@@H](C(C)C)C(=O)O[C@@H]2C)c(N)c1=O` [actinomycin D] (I: T[dV]P[Sar][NMeV] / II: T[dV]P[Sar][NMeV]; ester I:1-I:C, II:1-II:C; linker I:N-II:N via Actinocin(9to1)), the “RA catabolism (% of control)” value is on record as 14.3 % of control in data set [5] (actinomycin D 0.1 μg ml-1 with 10^-6 M all-trans-RA) and 11.7 % of control in data set [5] (actinomycin D 1 μg ml-1 with 10^-6 M all-trans-RA).
Consider `CC1=C(/C=C/C(C)=C/C=C/C(C)=C/C(=O)O)C(C)(C)CCC1` [all-trans-RA, All-trans-retinoic acid], for which, in data set [1], the “Inhibition” value was “most active compound”. The Michaelis constant (Km) in data set [6] is 0.33 µM; in data set [7] (setting [9]), 1.7 µM; in the data set with rat liver homogenates (setting [9]), 4.3 µM; in the data set with hamster liver microsomes (ref Roberts et al (1980)), 1.1 µM; in the data set on hamster liver microsomes (ref Van Wauwe et al (1988)), 12.5 µM. In addition, in the data set on CRABP-II mRNA (10^-7 M all-trans-RA, 24 h), the “Reduction in CRABP-II mRNA” value is reported as 20%. The “Expression of CRABP-I mRNA after treatment” value in the data set on CRABP-II mRNA (CRABP-I mRNA, results not shown) is on record as “remained low”. Further, in the data set on MCF-7 cells [3], the “Viability of the cells” value is on record as “did not decrease viability”. In [5] (10^-6 M all-trans-RA), the “Preincubation period to maximal induction” value is 16 h and 16 to 24 h. The “Time for induction to decrease to the constitutive level after wash-out” value in data set [5] (16 h induction with 10^-6 M all-trans-RA, then wash-out) is reported as at most 24 h. Further, the “Onset of induction detectable” value in data set [5] (preincubation with all-trans-RA) was at most 60 min.
Consider `Clc1cccc(C(c2ccc3[nH]cnc3c2)n2ccnc2)c1.Clc1cccc(C(c2ccc3[nH]cnc3c2)n2ccnc2)c1.O=C(O)/C=C/C(=O)O.O=C(O)/C=C/C(=O)O.O=C(O)/C=C/C(=O)O` (stereo not drawn) [liarozole-fumarate, 5-[3(chlorophenyl)(lH-imidazole-l-yl)methyl]-IH-benzimidazole (E)-2-butenedioate(2:3)], for which the “Inhibition” value in [1] is on record as “potency similar to that of all-trans-RA”. The values for the pIC50 (in data set [7] (setting [10]); in the data set on rat liver homogenates (setting [10])) were 6.59 and 6.85, respectively.
Regarding `CC1=C(/C=C/C(C)=C/C=C/C(C)=C/CO)C(C)(C)CCC1` [retinol, Retinol], the “Inhibition” value in data set [1] is on record as “least active natural compound”. The “Activity in inducing differentiation relative to all-trans-RA” value in data set [8] is on record as “approximately 10%”. Further, the “Viability of the cells” value in the data set with MCF-7 cells [3] is “did not decrease viability”.
